Columns and labels:
[1] = biological target: T1, alpha1 subunit of the GABA-A receptor together with a beta and a gamma subunit (Homo sapiens, UniProt P14867); experiment: GABA-A receptor modulation, voltage-sensitive dye fluorescence assay (alpha1); format: cell-based; settings: transfected eukaryotic cell line; sub-maximal concentration of GABA; fluorescent signal of voltage-sensitive dye
T1 construct: expressed in transfected cells
T1 sequence (P14867 28-456): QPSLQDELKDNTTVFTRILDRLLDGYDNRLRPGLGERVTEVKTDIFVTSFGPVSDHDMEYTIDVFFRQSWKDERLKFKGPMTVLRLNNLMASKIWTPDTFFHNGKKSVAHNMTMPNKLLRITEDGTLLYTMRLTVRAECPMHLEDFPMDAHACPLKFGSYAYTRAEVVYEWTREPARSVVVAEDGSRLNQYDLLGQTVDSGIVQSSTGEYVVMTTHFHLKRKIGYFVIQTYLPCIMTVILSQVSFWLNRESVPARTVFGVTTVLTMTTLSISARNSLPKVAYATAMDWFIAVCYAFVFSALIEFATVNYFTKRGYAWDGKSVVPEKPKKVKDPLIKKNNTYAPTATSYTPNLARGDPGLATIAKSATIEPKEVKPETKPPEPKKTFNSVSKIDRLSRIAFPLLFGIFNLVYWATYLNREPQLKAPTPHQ
T1 sequence (P47870 25-512 partner limits assumed): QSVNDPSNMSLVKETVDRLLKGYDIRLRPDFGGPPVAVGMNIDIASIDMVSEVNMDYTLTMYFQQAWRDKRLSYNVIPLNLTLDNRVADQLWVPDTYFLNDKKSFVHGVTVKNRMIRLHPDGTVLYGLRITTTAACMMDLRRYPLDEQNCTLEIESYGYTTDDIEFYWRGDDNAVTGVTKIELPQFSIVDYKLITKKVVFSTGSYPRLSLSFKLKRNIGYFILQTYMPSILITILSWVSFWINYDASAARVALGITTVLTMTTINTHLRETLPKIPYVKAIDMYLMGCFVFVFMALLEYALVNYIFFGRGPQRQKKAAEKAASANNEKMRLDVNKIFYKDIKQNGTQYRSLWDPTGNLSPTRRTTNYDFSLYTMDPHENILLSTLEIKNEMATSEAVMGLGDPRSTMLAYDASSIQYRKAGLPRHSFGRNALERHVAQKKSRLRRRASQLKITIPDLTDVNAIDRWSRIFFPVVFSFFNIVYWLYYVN
T1 sequence (P18507 40-467 partner limits assumed): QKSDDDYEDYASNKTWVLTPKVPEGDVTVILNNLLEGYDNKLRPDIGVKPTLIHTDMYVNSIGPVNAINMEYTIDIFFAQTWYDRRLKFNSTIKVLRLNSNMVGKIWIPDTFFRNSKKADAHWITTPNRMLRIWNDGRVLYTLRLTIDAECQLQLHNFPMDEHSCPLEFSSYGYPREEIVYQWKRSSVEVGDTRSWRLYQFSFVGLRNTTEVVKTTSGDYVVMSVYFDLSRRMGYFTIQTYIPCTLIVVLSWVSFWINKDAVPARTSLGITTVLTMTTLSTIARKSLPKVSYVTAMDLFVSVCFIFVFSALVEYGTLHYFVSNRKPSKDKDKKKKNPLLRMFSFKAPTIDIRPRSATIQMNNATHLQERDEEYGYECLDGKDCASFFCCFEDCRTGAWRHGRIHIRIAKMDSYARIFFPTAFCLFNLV

[2] = biological target: T2, alpha2 subunit of the GABA-A receptor together with a beta and a gamma subunit (Homo sapiens, UniProt P47869); experiment: GABA-A receptor modulation, voltage-sensitive dye fluorescence assay (alpha2); format: cell-based; settings: transfected eukaryotic cell line; sub-maximal concentration of GABA; fluorescent signal of voltage-sensitive dye
T2 construct: expressed in transfected cells
T2 sequence (P47869 29-451): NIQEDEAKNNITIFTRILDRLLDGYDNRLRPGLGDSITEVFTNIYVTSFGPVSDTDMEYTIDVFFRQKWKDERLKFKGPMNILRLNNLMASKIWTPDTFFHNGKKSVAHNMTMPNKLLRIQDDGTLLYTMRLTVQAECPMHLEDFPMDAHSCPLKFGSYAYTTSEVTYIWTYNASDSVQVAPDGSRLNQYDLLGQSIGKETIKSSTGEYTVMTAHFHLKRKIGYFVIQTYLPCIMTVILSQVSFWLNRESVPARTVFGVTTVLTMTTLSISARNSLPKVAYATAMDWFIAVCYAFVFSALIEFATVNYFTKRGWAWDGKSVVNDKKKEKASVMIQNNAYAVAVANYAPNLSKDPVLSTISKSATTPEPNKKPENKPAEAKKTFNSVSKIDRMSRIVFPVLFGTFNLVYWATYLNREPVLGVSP
T2 sequence (P28472 26-473 partner): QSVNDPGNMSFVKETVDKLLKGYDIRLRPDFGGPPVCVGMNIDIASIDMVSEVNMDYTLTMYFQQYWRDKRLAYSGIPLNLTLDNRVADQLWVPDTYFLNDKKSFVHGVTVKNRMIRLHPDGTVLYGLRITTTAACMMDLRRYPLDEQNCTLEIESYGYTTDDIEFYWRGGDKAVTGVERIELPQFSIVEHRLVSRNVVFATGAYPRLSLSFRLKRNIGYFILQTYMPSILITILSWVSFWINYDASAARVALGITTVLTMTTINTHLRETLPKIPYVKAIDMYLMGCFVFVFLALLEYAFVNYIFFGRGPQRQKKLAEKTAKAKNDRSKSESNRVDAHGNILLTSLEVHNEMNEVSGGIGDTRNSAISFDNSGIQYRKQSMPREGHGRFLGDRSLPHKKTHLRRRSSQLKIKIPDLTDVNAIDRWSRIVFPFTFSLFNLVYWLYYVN
T2 sequence (P18507 40-467 partner limits assumed): T1 sequence (P18507 40-467 partner limits assumed)
Description: GABA-A receptor modulators show in functional assays a positive modulation of GABA-induced signals. This modulation can be determined in vitro, e.g., at recombinant GABA-A receptors expressed in a mammalian cell line, e.g. by measurement of GABA-A receptor induced changes of the trans-membrane voltage, when using a voltage-sensitive dye and a fluorescence detection system (Adkins, C. E., Pillai, G. V., Kerby, J., Bonnert, T. P., Haldon, C., Mckernan, R. M., Gonzalez, J. E., Oades, K., Whiting, P. J. & Simpson, P. B. [2001]. alpha4beta3delta GABA-A receptors characterized by fluorescence resonance energy transfer-derived measurements of membrane potential. J. Biol. Chem., 276, 38934-38939). In this assay, a modulator compound is pre-applied at different concentrations ranging from 0.1 nM to 10 μM to cells expressing GABA-A receptors and loaded with the voltage-sensitive dye, before, or at the same time as, a sub-maximal concentration of GABA (in the range of from 0.1 to 10 μM) is applied to the cells. The fluorescent signal is correlated with the degree of GABA-A receptor channel opening. This allows the quantification of effects induced by the modulator in a functional manner. By expression of different GABA-A receptor subunit combinations, the differential efficacy of a modulator at different GABA-A receptor variants can be tested. […]

modulation of the GABA-induced response, alpha1 subunit [1]: 37%
modulation of the GABA-induced response, alpha2 subunit [2]: 140%
Compound: Clc1ccc(-n2nc3c4c(ncc3c2OCc2ccccc2Cl)CCCC4)cc1 [Example 1, 3-(2-Chloro-benzyloxy)-2-(4-chloro-phenyl)-6,7,8,9-tetrahydro-2H-pyrazolo[4,3-c]quinoline]

Source: patent US20110195950A1, “Organic Compounds” (NOVARTIS AG, priority 2007, published 2011)
